“Also recorded” adds a separate entry of the source.
Legend:
Type in all cases: in vivo, human
healthy male volunteers [1] = test: Pain rating (VAS) after graded von Frey hair stimulation in the capsaicin hyperalgesic area; conditions: VAS 0-10, single oral dose (clobazam 20 mg, clonazepam 1 mg, tolterodine 1 mg), mean (SD)
Description: Additionally, mechanical pain sensitivity was assessed using a set of seven weighted pinprick stimuli to obtain a stimulus-response function. The test was applied 1 cm inside the outer border of the pinprick hyperalgesic area, using a set of 7 graded von Frey hair mechanical stimulators with fixed stimulus intensities (custom-made at Aalborg University, Denmark). The flat contact area of the stimulators has a 0.2 mm diameter, and the 7 stimulators exert forces of 8, 16, 32, 64, 128, 256 and 512 mN. The order of stimulation was defined randomly by computer. The stimulators were applied at a rate of 2 s on/2 s off. Subjects were asked to give a pain rating for each stimulus on a 10 cm VAS. Two assessments for each stimulation were made and the mean of these 2 measurements was used for the data analysis.

healthy male volunteers [2] = test: Intramuscular single electrical stimulation pain threshold (tibialis anterior); conditions: for Pain threshold after single intramuscular electrical stimulation: mean (SD)
Description: Electrical stimulation was performed through electrodes placed distal to the lateral malleolus. A 25 ms, train-of-five, 1 ms, square-wave impulse (perceived as one stimulus), was delivered by a computer-controlled constant current stimulator (Digitimer DS7A, Neurospec, Letchworth Garden City, UK). The current intensity was increased from 1 mA in steps of 0.5 mA until a pain sensation was evoked.
(§1) A needle was placed in the tibialis anterior muscle, 14 cm distal from the caudal end of the patella and 20 mm in depth. The same single and repeated stimulation patterns and the same procedure described for cutaneous stimulation were used.

healthy male volunteers [3] = test: Area of dynamic mechanical hyperalgesia after intradermal capsaicin (cotton wool stroking); conditions: single oral dose (clobazam 20 mg, clonazepam 1 mg, tolterodine 1 mg), mean (SD)
Description: The area of dynamic mechanical hyperalgesia was determined by gently stroking a hand-held cotton wool tip on a 1 cm strip of the skin, at a rate of approximately 1 cm/s. Subjects were asked to report when the sensation changed from a non-painful to a painful sensation. The borders of dynamic hyperalgesia were delineated similarly to the determination of static hyperalgesia.

healthy male volunteers [4] = test: Intramuscular repeated (20 stimuli) electrical stimulation, VAS; set-up: AUC of VAS during 20 intramuscular electrical stimuli: unit not given beside the values; conditions: for Maximal VAS during 20 intramuscular electrical stimuli: VAS 0-10; for Maximal VAS during 20 intramuscular electrical stimuli / AUC of VAS during 20 intramuscular electrical stimuli: mean (SD)
Description: (§2) The stimulus burst used for single stimulus was repeated for a train of 20 pulses at 2 Hz, at an intensity corresponding to the temporal summation threshold. During this 10 s stimulation, pain intensity was continuously rated by the subject with an electronic VAS, and the area under the curve (AUC) was computed. Additionally, the maximal VAS during stimulation was recorded.
as §1

healthy male volunteers [5] = test: Cutaneous repeated (20 stimuli) electrical stimulation, VAS; set-up: AUC of VAS during 20 cutaneous electrical stimuli: unit not given beside the values; conditions: mean (SD); for Maximal VAS during 20 cutaneous electrical stimuli: VAS 0-10
Description: as §2

healthy male volunteers [6] = test: Cutaneous repeated (5 stimuli) electrical stimulation, temporal summation threshold; conditions: mean (SD)
Source text: The stimulus burst used for single stimulus was repeated 5 times at 2 Hz, at constant intensity. The current intensity of the 5 stimuli was increased from 1 mA in steps of 0.5 mA until the subjects felt pain during the last 2–3 of the 5 stimuli (indicating temporal summation).
Three assessments were made and the mean of these 3 measurements was used for the data analysis.

healthy male volunteers [7] = test: Conditioned pain modulation (cold pressor test and pressure algometry); conditions: difference in pressure pain detection threshold after vs before cold pressor test, mean (SD)
Source text: This method explores the endogenous modulation of nociceptive input. Under normal conditions, pain after application of a “test” nociceptive stimulus is attenuated by the application of an additional conditioning noxious stimulus to a remote body region, reflecting diffuse endogenous inhibition, [20]. In the present study, pressure pain detection threshold and cold pressure test (see below) were used as test and conditioning stimuli, respectively. An increase in pressure pain detection threshold immediately after cold pressure test was an indication of CPM.
The subjects placed their hand into a container filled with ice water. In order to maximize heterotopic stimulation, the hand contralateral to the side of pressure stimulation was used. The water was regularly mixed to maintain the temperature near to 0°C. The temperature of the water near the hand was monitored by a thermometer with a digital display (±0.1°C). The subjects were asked to keep the hand in the water until they felt an intolerable sensation of pain and were forced to remove the hand from the container, with a maximum time of 2 min.
Pressure pain detection threshold was measured again at the same time as the subject was withdrawing the hand from the water (one single measurement). CPM was measured as the difference in pressure pain detection threshold between measurements after and before the cold pressure test.

[8] = baseline before medication, per drug session
[9] = single oral dose (clobazam 20 mg, clonazepam 1 mg, tolterodine 1 mg), 120 min after medication
[10] = single oral dose (clobazam 20 mg, clonazepam 1 mg, tolterodine 1 mg), after flumazenil 0.2 mg iv
[11] = single oral dose (clobazam 20 mg, clonazepam 1 mg, tolterodine 1 mg), 30 min after medication
[12] = single oral dose (clobazam 20 mg, clonazepam 1 mg, tolterodine 1 mg), 60 min after medication
[13] = single oral dose (clobazam 20 mg, clonazepam 1 mg, tolterodine 1 mg), 90 min after medication

O=C1CN=C(c2ccccc2Cl)c2cc([N+](=O)[O-])ccc2N1 [Clonazepam]
VAS after von Frey hair 8 mN (healthy male volunteers [1]; 30 min after medication): 1.4 (1.5) | VAS after von Frey hair 16 mN (healthy male volunteers [1]; 30 min after medication): 1.6 (1.2) | VAS after von Frey hair 32 mN (healthy male volunteers [1]; 30 min after medication): 1.9 (1.5) | VAS after von Frey hair 64 mN (healthy male volunteers [1]; 30 min after medication): 2.8 (1.8) | VAS after von Frey hair 128 mN (healthy male volunteers [1]; 30 min after medication): 3.2 (4.2) | VAS after von Frey hair 256 mN (healthy male volunteers [1]; 30 min after medication): 4.2 (2.2) | VAS after von Frey hair 512 mN (healthy male volunteers [1]; 30 min after medication): 5.2 (2.1) | VAS after von Frey hair 8 mN (healthy male volunteers [1]; 60 min after medication): 1.2 (0.9) | VAS after von Frey hair 16 mN (healthy male volunteers [1]; 60 min after medication): 1.8 (1.9) | VAS after von Frey hair 32 mN (healthy male volunteers [1]; 60 min after medication): 2.0 (2.0) | VAS after von Frey hair 64 mN (healthy male volunteers [1]; 60 min after medication): 2.7 (2.0) | VAS after von Frey hair 128 mN (healthy male volunteers [1]; 60 min after medication): 3.5 (2.0) | VAS after von Frey hair 256 mN (healthy male volunteers [1]; 60 min after medication): 4.1 (1.8) | VAS after von Frey hair 512 mN (healthy male volunteers [1]; 60 min after medication): 5.1 (2.0) | VAS after von Frey hair 8 mN (healthy male volunteers [1]; 90 min after medication): 0.8 (0.8) | VAS after von Frey hair 16 mN (healthy male volunteers [1]; 90 min after medication): 1.3 (1.0) | VAS after von Frey hair 32 mN (healthy male volunteers [1]; 90 min after medication): 1.8 (1.4) | VAS after von Frey hair 64 mN (healthy male volunteers [1]; 90 min after medication): 2.1 (1.6) | VAS after von Frey hair 128 mN (healthy male volunteers [1]; 90 min after medication): 2.8 (1.7) | VAS after von Frey hair 256 mN (healthy male volunteers [1]; 90 min after medication): 4.4 (2.0) | VAS after von Frey hair 512 mN (healthy male volunteers [1]; 90 min after medication): 5.3 (2.1) | VAS after von Frey hair 8 mN (healthy male volunteers [1]; 120 min after medication): 1.0 (0.8) | VAS after von Frey hair 16 mN (healthy male volunteers [1]; 120 min after medication): 1.4 (1.2) | VAS after von Frey hair 32 mN (healthy male volunteers [1]; 120 min after medication): 2.1 (1.7) | VAS after von Frey hair 64 mN (healthy male volunteers [1]; 120 min after medication): 2.3 (1.5) | VAS after von Frey hair 128 mN (healthy male volunteers [1]; 120 min after medication): 2.9 (1.9) | VAS after von Frey hair 256 mN (healthy male volunteers [1]; 120 min after medication): 3.9 (2.2) | VAS after von Frey hair 512 mN (healthy male volunteers [1]; 120 min after medication): 5.0 (1.9) | VAS after von Frey hair 8 mN (healthy male volunteers [1]; after flumazenil 0.2 mg iv): 0.6 (0.6) | VAS after von Frey hair 16 mN (healthy male volunteers [1]; after flumazenil 0.2 mg iv): 1.4 (1.2) | VAS after von Frey hair 32 mN (healthy male volunteers [1]; after flumazenil 0.2 mg iv): 1.6 (1.4) | VAS after von Frey hair 64 mN (healthy male volunteers [1]; after flumazenil 0.2 mg iv): 2.2 (1.7) | VAS after von Frey hair 128 mN (healthy male volunteers [1]; after flumazenil 0.2 mg iv): 2.6 (1.9) | VAS after von Frey hair 256 mN (healthy male volunteers [1]; after flumazenil 0.2 mg iv): 3.8 (1.7) | VAS after von Frey hair 512 mN (healthy male volunteers [1]; after flumazenil 0.2 mg iv): 4.9 (1.7) | Pain threshold after single intramuscular electrical stimulation (healthy male volunteers [2]; [8]): 1.8 (1.2) mA | Pain threshold after single intramuscular electrical stimulation (healthy male volunteers [2]; baseline before medication, per drug session, listed as clonazepam): 1.84 mA | Change in pain threshold after single intramuscular electrical stimulation from baseline to after flumazenil (healthy male volunteers [2]; main analysis, pairwise comparisons within each drug): Significant increase in pain thresholds only for clonazepam | Change in pain detection threshold from baseline to peak value, intramuscular single electrical stimulation (healthy male volunteers [2]; peak value analysis, pairwise comparisons within each drug): significantly increase; also recorded: Significant increase in pain thresholds only for clonazepam in the peak value analysis | Pain detection threshold, intramuscular single electrical stimulation (healthy male volunteers [2]; peak value analysis, peak value before flumazenil, mean): 11.0 | Pain threshold after single intramuscular electrical stimulation (healthy male volunteers [2]; [9]): 3.0 (2.5) mA | Pain threshold after single intramuscular electrical stimulation (healthy male volunteers [2]; [10]): 4.1 (3.7) mA | Pain threshold after single intramuscular electrical stimulation (healthy male volunteers [2]; single oral dose (clobazam 20 mg, clonazepam 1 mg, tolterodine 1 mg), after flumazenil 0.2 mg iv, listed as clonazepam): 4.05 mA | Area of dynamic hyperalgesia (healthy male volunteers [3]; 30 min after medication): 22.4 (11.2) cm^2 | Area of dynamic hyperalgesia (healthy male volunteers [3]; 60 min after medication): 19.0 (07.8) cm^2 | Area of dynamic hyperalgesia (healthy male volunteers [3]; 90 min after medication): 21.7 (12.6) cm^2 | Area of dynamic hyperalgesia (healthy male volunteers [3]; 120 min after medication): 16.8 (10.8) cm^2 | Area of dynamic hyperalgesia (healthy male volunteers [3]; after flumazenil 0.2 mg iv): 19.2 (13.1) cm^2 | Maximal VAS during 20 intramuscular electrical stimuli (healthy male volunteers [4]; [8]): 4.3 (1.4) | Maximal VAS during 20 intramuscular electrical stimuli (healthy male volunteers [4]; [9]): 3.2 (2.4) | Maximal VAS during 20 intramuscular electrical stimuli (healthy male volunteers [4]; [10]): 2.8 (2.0) | AUC of VAS during 20 intramuscular electrical stimuli (healthy male volunteers [4]; [8]): 307 (138) | AUC of VAS during 20 intramuscular electrical stimuli (healthy male volunteers [4]; [9]): 236 (204) | AUC of VAS during 20 intramuscular electrical stimuli (healthy male volunteers [4]; [10]): 209 (178) | Maximal VAS during 20 intramuscular electrical stimuli, comparison among drugs (healthy male volunteers [4]; subgroup analysis (n = 8), pairwise comparisons vs tolterodine and clobazam): lower values; also recorded: Significantly lower maximal VAS with clonazepam, compared with tolterodine and clobazam in the subgroup analysis | Maximal VAS during 20 cutaneous electrical stimuli (healthy male volunteers [5]; [8]): 4.9 (1.6) | Maximal VAS during 20 cutaneous electrical stimuli (healthy male volunteers [5]; [11]): 5.4 (2.0) | Maximal VAS during 20 cutaneous electrical stimuli (healthy male volunteers [5]; [12]): 5.0 (2.3) | Maximal VAS during 20 cutaneous electrical stimuli (healthy male volunteers [5]; [13]): 4.7 (2.1) | Maximal VAS during 20 cutaneous electrical stimuli (healthy male volunteers [5]; [9]): 4.4 (1.6) | Maximal VAS during 20 cutaneous electrical stimuli (healthy male volunteers [5]; [10]): 4.2 (1.6) | AUC of VAS during 20 cutaneous electrical stimuli (healthy male volunteers [5]; [8]): 359 (144) | AUC of VAS during 20 cutaneous electrical stimuli (healthy male volunteers [5]; [11]): 352 (131) | AUC of VAS during 20 cutaneous electrical stimuli (healthy male volunteers [5]; [12]): 349 (185) | AUC of VAS during 20 cutaneous electrical stimuli (healthy male volunteers [5]; [13]): 351 (141) | AUC of VAS during 20 cutaneous electrical stimuli (healthy male volunteers [5]; [9]): 344 (148) | AUC of VAS during 20 cutaneous electrical stimuli (healthy male volunteers [5]; [10]): 322 (137) | Pain threshold after 5 cutaneous electrical stimuli (healthy male volunteers [6]; [8]): 8.2 (3.1) mA | Pain threshold after 5 cutaneous electrical stimuli (healthy male volunteers [6]; [11]): 8.2 (3.0) mA | Pain threshold after 5 cutaneous electrical stimuli (healthy male volunteers [6]; [12]): 8.5 (2.9) mA | Pain threshold after 5 cutaneous electrical stimuli (healthy male volunteers [6]; [13]): 8.8 (3.2) mA | Pain threshold after 5 cutaneous electrical stimuli (healthy male volunteers [6]; [9]): 9.1 (3.1) mA | Pain threshold after 5 cutaneous electrical stimuli (healthy male volunteers [6]; [10]): 9.2 (3.3) mA | Conditioned pain modulation (healthy male volunteers [7]; [8]): 70 (113) kPa | Conditioned pain modulation (healthy male volunteers [7]; [9]): 85 (77) kPa | Conditioned pain modulation (healthy male volunteers [7]; [10]): 74 (86) kPa

Source: PMC3598812, “Evaluation of Anti-Hyperalgesic and Analgesic Effects of Two Benzodiazepines in Human Experimental Pain: A Randomized Placebo-Controlled Study” (PLoS ONE, 2013)
